According to paper PMC9460261, “Need for a Standardized Translational Drug Development Platform: Lessons Learned from the Repurposing of Drugs for COVID-19” (Microorganisms, 2022):
Where two headings read alike, the source gives them in different places.

Tests used:
[1] = test system: SARS-CoV-2; format: in vivo, Syrian hamster; details: for Activity in SARS-CoV-2 Hamster Model: doses, frequency, duration as in Table 1
[2] = cited from earlier work
[3] = Population PK model in human (digitized literature data); details: human; modelled from digitized data; ref 68 (ambroxol), 71-73 (cepharanthine), 78 (fluvoxamine), 80 (molnupiravir)
[4] = test system: SARS-CoV-2 in Vero cells; assay: microbe, parasite or virus in culture; details: Severe acute respiratory syndrome coronavirus 2, Vero
[5] = Population PK model from satellite PK studies in hamster; details: for CL/F, elimination clearance, population estimate (%RSE) / KA, absorption rate constant, population estimate (%RSE) / Q/F (Q1/F), inter-compartment clearance, population estimate (%RSE) / VC/F, central volume of distribution, population estimate (%RSE) / VP/F, peripheral volume of distribution, population estimate (%RSE): hamster of the study's median weight (80-131 g)
[6] = Plasma protein binding, human; details: human, plasma
[7] = Plasma protein binding, hamster; details: hamster, plasma
[8] = test system: SARS-CoV-2 in Calu-3 cells; assay: microbe, parasite or virus in culture
[9] = test system: SARS-CoV-2; details: read-out: SARS-CoV-2 EC50, cited from earlier work
[10] = Binding to antiviral assay medium by Rapid Equilibrium Dialysis; details: bovine
[11] = test system: SARS-CoV-2 in Vero cells
[12] = test system: SARS-CoV-2 in Calu-3 cells
[13] = in vitro; details: African green monkey, Selectivity Index (Vero cells)
[14] = read-out: VERO cells Average IC50, With Pgp pump inhibitor, 2 μM CP-100356, * one replicate only
[15] = read-out: VERO cells Average IC50, Without Pgp pump inhibitor, * one replicate only
[16] = Severe acute respiratory syndrome coronavirus 2, Calu-3, read-out: Calu-3 cells Average IC50
[17] = antiviral assay medium (DMEM with 2% v/v FCS)

Structure (SMILES)	IC50 [4, 14]	IC50 [4, 15]	CL/F, elimination clearance, population estimate (%RSE) [5]	KA, absorption rate constant, population estimate (%RSE) [5]	Q/F (Q1/F), inter-compartment clearance, population estimate (%RSE) [5]	VC/F, central volume of distribution, population estimate (%RSE) [5]	VP/F, peripheral volume of distribution, population estimate (%RSE) [5]	fraction unbound [6]	Activity in SARS-CoV-2 Hamster Model [1]	fraction unbound [7]	IC50 [8, 16]	fraction unbound [10, 17]	Activity In Vitro; Potency EC50 or IC50 < 10 µM; Vero Cells [11]	Activity In Vitro; Potency EC50 or IC50 < 10 µM; Calu-3 Cells [12]	further results
CCC(CC)COC(=O)[C@H](C)N[P@](=O)(OC[C@H]1O[C@@](C#N)(c2ccc3c(N)ncnn23)[C@H](O)[C@@H]1O)Oc1ccccc1 [remdesivir]	–	–	–	–	–	–	–	–	–	–	–	–	–	–	Effect on lung infectious titers ([1]; hamster, in vivo): no significant effect; Effect on lung viral RNA yields ([1]; hamster, in vivo): little significant effect; Plasma stability, half-life ([2]; genetically modified mouse (Cesc-/- knockout)): around 25 min; Plasma stability, half-life ([2]; mice): < 5 min
Nc1c(Br)cc(Br)cc1CN[C@H]1CC[C@H](O)CC1 [Ambroxol, ambroxol]	> 50 µM	> 50 µM	4860 (11.3%) mL/h	4.76 (15.1%) h-1	1180 (22.5%) mL/h	12000 (10.9%) mL	16100 (31.6%) mL	0.238	No	0.125	> 50 µM	0.954	No (Potency EC50 or IC50 < 10 µM)	No (Potency EC50 or IC50 < 10 µM)	CL/F, population estimate (%RSE) [3]: 41.4 (3.0%) L/h; Dose effect on F (power) ([5]; covariate, hamster model): 0.689 (11.1%); EC50 ([9]; host cell Vero E6, ref 47): > 30 µM
Cc1c(O)cccc1C(=O)N[C@@H](CSc1ccccc1)[C@H](O)CN1C[C@H]2CCCC[C@H]2C[C@H]1C(=O)NC(C)(C)C [Nelfinavir, nelfinavir]	1.6 µM	5.5 µM	613 (4.2) mL/h	–	–	547 (15.3) mL	–	0.001	No ^e	0.001	12.8 µM	0.243	Yes (Potency EC50 or IC50 < 10 µM)	Yes (Potency EC50 or IC50 < 10 µM)	Dose effect on F (linear) ([5]; covariate, hamster model): 0.384 (32); Dose effect on KA (linear) ([5]; covariate, hamster model): -0.801 (3.7); Lung inflammation and disease outcome ([1]; hamster, in vivo): diminution of lung inflammation; Virus load ([1]; hamster, in vivo): no effect on viral load was detected; IC50 ([8]; Severe acute respiratory syndrome coronavirus 2, Calu-3, read-out: EC50 or IC50, Calu-3 Cells (borderline)): 13 µM; selectivity ratio ([13]; With Pgp pump inhibitor): > 32; selectivity ratio ([13]; Without Pgp pump inhibitor): > 9; EC50 ([9]; host cell Vero E6, ref 41): 2.89 µM; EC50 ([9]; host cell Vero, ref 40): 0.048 µM; EC50 ([9]; host cell VeroE6/TMPRSS2): 0.77 µM; Toxicity observed (^T), Vero Cells [11]: Yes ^T
CC(C)OC(=O)[C@H](C)N[P@](=O)(OC[C@H]1O[C@@H](n2ccc(=O)[nH]c2=O)[C@](C)(F)[C@@H]1O)Oc1ccccc1 [Sofosbuvir, sofosbuvir]	> 50 µM	> 50 µM	122000 (14.4) mL/h	0.622 (15.9) h-1	139000 (17.2) mL/h	46600 (29.9) mL	1490000 (27.9) mL	–	No	–	> 50 µM	–	No (Potency EC50 or IC50 < 10 µM)	No (Potency EC50 or IC50 < 10 µM)	Activity in SARS-CoV-2 Hamster Model ([1]; listed as sofosbuvir): no activity; EC50 ([9]; host cell Calu-3): 7.3 µM; EC50 ([9]; host cell HuH-7): 5.1 µM; EC50 ([9]; host cell Vero, ref 26): > 10 µM; fraction unbound [10]: 0.716
